Measurements reported in US20180093956A1, “SUBSTITUTED PHTHALAZINES” (AbbVie Inc., priority 2015, published 2018).

Biological target: SUV420H1 enzyme (Homo sapiens, UniProt Q4FZB7)
Test: TR-FRET SAH SUV420H1 enzyme inhibition assay
Assay type: biochemical
Settings: Histone Peptide H4(8-30)me1 and SAM, TR-FRET detection of SAH, read-out: TR-FRET SAH_SUV420H1 IC50
Description: Test compounds were dispensed by a Labcyte Echo in 384-well low volume assay plates with 3-fold serial dilutions from 50 μM to 0.00075 μM. 5 μL of SUV420H1 enzyme (Abbvie) at 90 nM was added to all wells except for the no enzyme control wells and incubated for 30 minutes at room temperature before 5 μL of Histone Peptide H4(8-30)me1 (Anaspec) at 5 μM and SAM at 4 μM was added to all wells. The plates were incubated in a humidified chamber overnight at room temp and then 10 μL of the detection reagent that contained RIPA buffer (50 mM Tris-HCl, pH 8.0, 150 mM sodium chloride, 1.0% Igepal CA-630 (NP-40), 0.5% sodium deoxycholate and 0.1% sodium dodecyl sulfate) (Sigma) with 2 nM of Terbium chelate anti S-adenosyl-L-homocysteine (SAH) (Abbvie) antibody and Oregon Green labeled SAH at 4 nM was added. The plates were further incubated for 4 hours at room temperature. The plates were read in a Perkin Elmer Envision using a TR-FRET protocol with Excitation set at 335 nm and Emission at 520 and 495 nm. To generate dose response curves the data is normalized to percent inhibition by setting the average of the plus and minus enzyme control wells to 0% and 100% inhibition respectively. The ICso values for the compounds are generated by fitting the normalized data with Accelrys Assay Explorer 3.3 to a sigmoidal curve model using […], Y=(100*x^n)/(K^n+x^n), where Y is the measured response, x is the compound concentration, n is the Hill Slope and K is the IC50 and the lower and higher asymptotes are constrained to 0 and 100 respectively.

Chain of SUV420H1 enzyme (Q4FZB7 whole entry): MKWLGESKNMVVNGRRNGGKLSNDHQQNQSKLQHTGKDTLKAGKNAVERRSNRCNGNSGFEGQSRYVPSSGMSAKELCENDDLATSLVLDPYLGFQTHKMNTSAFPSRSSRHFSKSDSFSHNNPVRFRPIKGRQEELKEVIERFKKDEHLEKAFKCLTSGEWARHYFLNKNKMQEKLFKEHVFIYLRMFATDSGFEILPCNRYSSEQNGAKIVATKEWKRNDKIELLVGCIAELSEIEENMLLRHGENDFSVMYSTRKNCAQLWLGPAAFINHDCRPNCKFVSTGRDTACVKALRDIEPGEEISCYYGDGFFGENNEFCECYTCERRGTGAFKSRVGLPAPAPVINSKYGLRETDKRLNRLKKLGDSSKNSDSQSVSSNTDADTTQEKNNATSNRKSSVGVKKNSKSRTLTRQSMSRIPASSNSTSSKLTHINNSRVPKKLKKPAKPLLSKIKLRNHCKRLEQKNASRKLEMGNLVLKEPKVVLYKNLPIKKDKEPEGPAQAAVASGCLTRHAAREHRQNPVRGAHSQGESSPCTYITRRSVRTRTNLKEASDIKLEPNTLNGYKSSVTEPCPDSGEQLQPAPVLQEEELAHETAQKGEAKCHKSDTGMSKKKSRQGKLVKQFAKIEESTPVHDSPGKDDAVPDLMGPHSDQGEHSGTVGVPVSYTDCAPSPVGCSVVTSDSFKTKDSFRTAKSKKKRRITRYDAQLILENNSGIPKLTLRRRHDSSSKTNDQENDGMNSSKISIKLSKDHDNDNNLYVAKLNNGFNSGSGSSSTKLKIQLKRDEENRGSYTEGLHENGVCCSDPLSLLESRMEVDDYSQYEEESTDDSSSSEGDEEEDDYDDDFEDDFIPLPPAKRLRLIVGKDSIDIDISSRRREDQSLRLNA

Compound: OCCNc1cc(-c2nnc(NC3CCCC3)c3cc(Cl)c(Cl)cc23)ccn1 [Example 39, 2-({4-[6,7-dichloro-4-(cyclopentylamino)phthalazin-1-yl]pyridin-2-yl}amino)ethanol]
- IC50: 3.49 µM

Compound: Clc1cc2c(NC3CCCC3)nnc(-c3ccnc(N4CCOCC4)c3)c2cc1Cl [Example 17, 6,7-dichloro-N-cyclopentyl-4-[2-(morpholin-4-yl)pyridin-4-yl]phthalazin-1-amine]
- IC50: 7.38 µM

Compound: Clc1cc2c(NC3CCCC3)nnc(C3=CCNCC3)c2cc1Cl [Example 24, 6,7-dichloro-N-cyclopentyl-4-(1,2,3,6-tetrahydropyridin-4-yl)phthalazin-1-amine]
- IC50: 1.28 µM

Compound: O=C(O)Cn1cc(-c2nnc(NC3CCCC3)c3cc(Cl)c(Cl)cc23)cn1 [Example 44, {4-[6,7-dichloro-4-(cyclopentylamino)phthalazin-1-yl]-1H-pyrazol-1-yl}acetic acid]
- IC50: 0.255 µM

Compound: O=C1CCC(C(=O)N2CC=C(c3nnc(NC4CCCC4)c4cc(Cl)c(Cl)cc34)CC2)C1 (centres unmarked) [Example 81, 3-({4-[6,7-dichloro-4-(cyclopentylamino)phthalazin-1-yl]-3,6-dihydropyridin-1(2H)-yl}carbonyl)cyclopentanone]
- IC50: 2.23 µM

Compound: O=S(=O)(c1ccccc1)N1CC=C(c2nnc(NC3CCCC3)c3cc(Cl)c(Cl)cc23)CC1 [Example 69, 6,7-dichloro-N-cyclopentyl-4-[1-(phenylsulfonyl)-1,2,3,6-tetrahydropyridin-4-yl]phthalazin-1-amine]
- IC50: 2.35 µM

Compound: CN1CCN(c2cc(-c3nnc(NC4CCCC4)c4cc(Cl)c(Cl)cc34)ccn2)CC1 [Example 16, 6,7-dichloro-N-cyclopentyl-4-[2-(4-methylpiperazin-1-yl)pyridin-4-yl]phthalazin-1-amine]
- IC50: 8.35 µM

Compound: CN1CCN(c2ccc(-c3nnc(NC4CCCC4)c4cc(Cl)c(Cl)cc34)cn2)CC1 [Example 21, 6,7-dichloro-N-cyclopentyl-4-[6-(4-methylpiperazin-1-yl)pyridin-3-yl]phthalazin-1-amine]
- IC50: 1.46 µM

Compound: O=C(Cn1cc(-c2nnc(NC3CCCC3)c3cc(Cl)c(Cl)cc23)cn1)N1CCCC1 [Example 58, 2-{4-[6,7-dichloro-4-(cyclopentylamino)phthalazin-1-yl]-1H-pyrazol-1-yl}-1-(pyrrolidin-1-yl)ethanone]
- IC50: 6.01 µM

Compound: OC1CCN(c2ccc(-c3nnc(NC4CCCC4)c4cc(Cl)c(Cl)cc34)cn2)C1 (centres unmarked) [Example 34, 1-{5-[6,7-dichloro-4-(cyclopentylamino)phthalazin-1-yl]pyridin-2-yl}pyrrolidin-3-ol]
- IC50: 2.73 µM

Compound: Clc1cc2c(NC3CCCC3)nnc(N3CCOCC3)c2cc1Cl [Example 10, 6,7-dichloro-N-cyclopentyl-4-(morpholin-4-yl)phthalazin-1-amine]
- IC50: 48.4 µM

Compound: NC(=O)CC(=O)N1CC=C(c2nnc(NC3CCCC3)c3cc(Cl)c(Cl)cc23)CC1 [Example 83, 3-{4-[6,7-dichloro-4-(cyclopentylamino)phthalazin-1-yl]-3,6-dihydropyridin-1(2H)-yl}-3-oxopropanamide]
- IC50: 0.816 µM

Compound: CN(CCO)c1cc(-c2nnc(NC3CCCC3)c3cc(Cl)c(Cl)cc23)ccn1 [Example 35, 2-[{4-[6,7-dichloro-4-(cyclopentylamino)phthalazin-1-yl]pyridin-2-yl}(methyl)amino]ethanol]
- IC50: 0.808 µM

Compound: CN(CCO)C(=O)c1nnc(NC2CCCC2)c2cc(Cl)c(Cl)cc12 [Example 46, 6,7-dichloro-4-(cyclopentylamino)-N-(2-hydroxyethyl)-N-methylphthalazine-1-carboxamide]
- IC50: 5.46 µM

Compound: Clc1cc2c(NC3CCCC3)nnc(-c3ccc(N4CCOCC4)nc3)c2cc1Cl [Example 22, 6,7-dichloro-N-cyclopentyl-4-[6-(morpholin-4-yl)pyridin-3-yl]phthalazin-1-amine]
- IC50: 1.01 µM

Compound: CN1CCN(C(=O)c2nnc(NC3CCCC3)c3cc(Cl)c(Cl)cc23)CC1 [Example 49, [6,7-dichloro-4-(cyclopentylamino)phthalazin-1-yl](4-methylpiperazin-1-yl)methanone]
- IC50: 6.09 µM

Compound: O=S1(=O)CCN(c2ccc(-c3nnc(NC4CCCC4)c4cc(Cl)c(Cl)cc34)cn2)CC1 [Example 41, 6,7-dichloro-N-cyclopentyl-4-[6-(1,1-dioxidothiomorpholin-4-yl)pyridin-3-yl]phthalazin-1-amine]
- IC50: 0.805 µM

Compound: Clc1cc2c(NC3CCCC3)nnc(-c3ccnc(N4CCCC4)c3)c2cc1Cl [Example 15, 6,7-dichloro-N-cyclopentyl-4-[2-(pyrrolidin-1-yl)pyridin-4-yl]phthalazin-1-amine]
- IC50: > 50 µM

Compound: Clc1cc2c(NC3CCCC3)nnc(-c3ccc(N4CCNCC4)nc3)c2cc1Cl [Example 27, 6,7-dichloro-N-cyclopentyl-4-[6-(piperazin-1-yl)pyridin-3-yl]phthalazin-1-amine]
- IC50: 1.32 µM

Compound: CC(=O)N1CC=C(c2nnc(NC3CCCC3)c3cc(Cl)c(Cl)cc23)CC1 [Example 25, 1-{4-[6,7-dichloro-4-(cyclopentylamino)phthalazin-1-yl]-3,6-dihydropyridin-1(2H)-yl}ethanone]
- IC50: 1.1 µM

Compound: O=C(c1nnc(NC2CCCC2)c2cc(Cl)c(Cl)cc12)N1CCC(O)CC1 [Example 52, [6,7-dichloro-4-(cyclopentylamino)phthalazin-1-yl](4-hydroxypiperidin-1-yl)methanone]
- IC50: 12.8 µM

Compound: O=C(c1nnc(NC2CCCC2)c2cc(Cl)c(Cl)cc12)N1CCS(=O)(=O)CC1 [Example 50, [6,7-dichloro-4-(cyclopentylamino)phthalazin-1-yl](1,1-dioxidothiomorpholin-4-yl)methanone]
- IC50: 5.06 µM

Compound: CN(C)c1cc(-c2nnc(NC3CCCC3)c3cc(Cl)c(Cl)cc23)ccn1 [Example 32, 6,7-dichloro-N-cyclopentyl-4-[2-(dimethylamino)pyridin-4-yl]phthalazin-1-amine]
- IC50: 11.2 µM

Compound: Clc1cc2c(NC3CCCC3)nnc(N3CCCC3)c2cc1Cl [Example 11, 6,7-dichloro-N-cyclopentyl-4-(pyrrolidin-1-yl)phthalazin-1-amine]
- IC50: > 50 µM

Compound: 6,7-dichloro-4-(cyclopentylamino)phthalazine-1-carboxylic acid [Example 38]
- IC50: 8.68 µM

Compound: O[C@@H]1CC[C@H](Nc2nnc(Cl)c3cc(Cl)c(Cl)cc23)C1 (racemic) [Example 13, rac-(1R,3S)-3-[(4,6,7-trichlorophthalazin-1-yl)amino]cyclopentanol]
- IC50: 2.63 µM

Compound: O=C(Cn1cc(-c2nnc(NC3CCCC3)c3cc(Cl)c(Cl)cc23)cn1)N1CCC(O)C1 (centres unmarked) [Example 59, 2-{4-[6,7-dichloro-4-(cyclopentylamino)phthalazin-1-yl]-1H-pyrazol-1-yl}-1-(3-hydroxypyrrolidin-1-yl)ethanone]
- IC50: 0.766 µM

Compound: O=C(c1nnc(NC2CCCC2)c2cc(Cl)c(Cl)cc12)N1CCOCC1 [Example 51, [6,7-dichloro-4-(cyclopentylamino)phthalazin-1-yl](morpholin-4-yl)methanone]
- IC50: 8.21 µM

Compound: O=C(c1nnc(NC2CCCC2)c2cc(Cl)c(Cl)cc12)N1CCC(O)C1 (centres unmarked) [Example 48, [6,7-dichloro-4-(cyclopentylamino)phthalazin-1-yl](3-hydroxypyrrolidin-1-yl)methanone]
- IC50: 4.16 µM
